# From patent US4670469A, “Hydroxamic acid and pharmaceutical preparations containing the same” (VEB Arzneimittelwerk Dresden, priority 1983, dated 1987)
# pEC50, pIC50: −log10 of the molar value. Like-named read-outs stand apart in the source and are kept apart here.
# Columns and labels:
# [1] = target: T1, lipoxygenase from rabbit reticulocytes (Oryctolagus cuniculus, UniProt P12530); experiment: Inhibition of the activity of lipoxygenase from rabbit reticulocytes (oxygen consumption, Clark electrode); format: biochemical; conditions: for IC84: read-out: I84
# T1 construct: The lipoxygenase from rabbit reticulocytes is obtained in electrophoretically and immunologically pure form; from tissue; host or cells: rabbit reticulocytes
# T1 sequence (P12530 1-663): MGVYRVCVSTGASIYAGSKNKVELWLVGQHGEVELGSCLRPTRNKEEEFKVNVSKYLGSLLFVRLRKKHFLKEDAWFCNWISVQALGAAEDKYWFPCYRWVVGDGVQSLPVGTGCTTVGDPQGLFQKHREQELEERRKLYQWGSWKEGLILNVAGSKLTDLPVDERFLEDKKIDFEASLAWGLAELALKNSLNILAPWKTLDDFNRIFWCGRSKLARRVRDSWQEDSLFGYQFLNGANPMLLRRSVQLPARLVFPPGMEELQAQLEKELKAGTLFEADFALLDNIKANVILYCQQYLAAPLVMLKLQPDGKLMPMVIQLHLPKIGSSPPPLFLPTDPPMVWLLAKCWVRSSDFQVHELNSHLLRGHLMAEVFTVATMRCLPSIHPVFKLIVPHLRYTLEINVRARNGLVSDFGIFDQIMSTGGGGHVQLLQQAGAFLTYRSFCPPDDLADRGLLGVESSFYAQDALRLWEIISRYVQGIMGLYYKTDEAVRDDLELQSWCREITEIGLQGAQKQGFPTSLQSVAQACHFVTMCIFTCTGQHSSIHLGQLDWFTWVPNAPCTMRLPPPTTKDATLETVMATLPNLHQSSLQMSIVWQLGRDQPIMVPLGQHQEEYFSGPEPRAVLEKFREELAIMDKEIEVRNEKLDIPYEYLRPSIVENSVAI
# Protocol: The lipoxygenase from rabbit reticulocytes was obtained in electrophoretically and immunologically pure form according to a technique known from the literature (S. M. Rapoport et al. Methods in Enzymology 71, 430 (1981)). The determination of lipoxygenase activity follows at 25° C. through the polarographic measurement of the oxygen consumption by means of Clark Electrode in a standardized system.
# Through variation of the substance concentrations, the titration curves of the inhibition and therefrom the inhibition concentrations (I-value) of the compounds can be determined.
# The testing of compounds for antiasthmatic, antiallergenic, inflammation-inhibiting and antithrombotic activity on the basis on the inhibition of the lipoxygenase reaction of the arachidonic acid cascade follows in a molecular/pharmacological test system. […] The lipoxygenase from rabbit reticulocytes is obtained in electrophoretically and immunologically pure form according to the techniques described in the literature (supra). The determination of the lipoxygenase activity follows at 25° C. through the polorographic measurement of oxygen consumption by means of a Clark-electrode in the following system: 0.1M potassiumphosphate, pH 7.4, with 0.2 percent sodium cholate and 0.53 mM linoleic acid. The enzyme concentration in the measurement preparation came to 25 nM. The compounds to be tested are dissolved in methylglycol (freshly distilled in a vacuum) and pre-incubated for 15 minutes at the measuring temperature in the absence of sodium cholate and linoleic acid. […] The enzyme reaction is started by the addition of sodium cholate and linoleic acid.
# guinea pig trachia = experiment: Carbachol-induced spasm of guinea pig trachea; conditions: Cavia porcellus; spasm triggered by 3.9 μM carbachol; read-out: active substance concentration at which strong to very strong dilatation was clearly determinable
# Source text: (§1) The testing of the compounds for antiasthmatic activity follows on isolated lung strips and isolated tracheal rings from guinea pigs according to measuring methods known from the literature (supra) in modified form. The measurements follow in thermostatically controlled organ bath, isotonically using a contraction measuring arrangement with lift receiver, measuring coil, measuring amplifier (inductive measurement with the aid of a high frequency resonant circuit). The gasification follows with air. The suspension solution has the following composition: 39.46 g NaCl, 2.2 g KCl, 6.07 g Tris, 1.0 g CaCl2, 9.9 g glucose, 1.0 ml saturated MgCl2 -solution, 43 ml 1N HCl; pH 7.4.
# (b) Activity on the carbachol-induced spasm of guinea pig trachia
# The spasms are triggered by 3.9 μM carbachol.
# guinea pig lung strips [2] = experiment: Arachidonic acid-induced spasm of isolated guinea pig lung strips; conditions: active substance 100 μM
# Source text: They display in animal experimental tests on isolated lung strips from guinea pigs a pronounced antiasthmatic effect. The testing of the mentioned pharmacological characteristics follows according to the principles of measuring techniques known from the literature, which come into use in modified form (G. M. Drazen et al. G. Clin. Invest. 63 1 (1979); M. W. Schneider and G. M. Drazen Amer. Rev. Resp. Dis. 121 835 (1980); S. S. Yen and W. Kreutner, Agents Actions 10 274 (1980); S. S. Yen Prostaglandins 22, 183 (1981)).
# The compounds of Formula I effect a significant restraint on arachidonic acid-induced bronchial constriction (1.5.10^-5 M arachidonic acid) in the guinea pig lung preparations (see, Example 6). Also with the addition of a cyclooxygenase inhibitor to the measuring system this effect was unaltered, and to some extent stronger, detectably. These experimental results permit without a doubt the conclusion that the compounds of Formula I involve inhibitors of the lipoxygerase pathway of arachidonic utilization, and the above described pharmacological effect is grounded upon this mechanism of activity.
# as §1
# (a) Activity on spasm of the guinea pig lung strips, induced by exogenous arachidonic acid.
# The spasm is triggered by rising concentrations of arachidonic acid (concentrated solution in ethanol, stored in N2 -atmosphere) and is cumulatively measured. […] The active substance caused a highly significant displacement to the right of the Dose-Activity curves for arachidonic acid, visible by a clear elevation of the ED50 - and ED84 -values. The effect can be described through the following activity index: [formula] In an analogous manner, the index i84 is determined from the measured data.
# guinea pig lung strips [3] = experiment: Activity on the basal tones of guinea pig lung strips; conditions: Cavia porcellus, basal tone, cumulative dose-activity curve
# Source text: as §1
# (c) Activity on the basal tones of guinea pig lung strips.
# Increasing concentrations of the active substance are added to the suspension medium. There occurs a dilatation, which is cumulatively measured. From the Dose-Activity-curves are provided the following parameters: […]
# thrombocyte aggregation = experiment: Arachidonic acid-induced thrombocyte aggregation in thrombocyte-rich plasma; format: cell-based, humans; conditions: Homo sapiens; 0.8 mM arachidonic acid; concentration giving total restraint of aggregation
# Source text: Since with the new medicines the restraints of lipoxygenase has been identified as a molecular type of attack, also their influence on the thrombocyte-aggregation has been tested. The essential role of the lipoxygenase pathway for irreversibility of the thrombocyte aggregation is now known. (C. E. Dutilh et al. Prostaglandins and Medicine 6, 111 (1981)). The key role is attributed to the irreversibility of the thrombocyte aggregation in the pathogenesis of thrombotic illnesses. […] In the experiments, the thrombocyte aggregation was triggered either by means of arachidonic acid or by means of platelet activation factor (PAF-Acether).
# The testing of the compounds for antithrombotic and thrombolytic activity follows in authentic cell systems of humans in vitro. Thrombocyte-rich plasma from the blood of healthy donors is obtained by centrifugation at 1,000×g. The measurement of the thrombocyte aggregation follows by means of an aggregometer based upon diffuse light scattering or light absorption of the produced cell aggregate. The thrombocyte-rich plasma is pre-incubated at 37° C. for 3 minutes with the active substance or substances; thereafter the thrombocyte aggregation is triggered through the addition of either 0.8 mM arachidonic acid or 1 μM platelet activation factor (PAF-acether). The preparations are then stirred with a velocity of 800 rpm. Indeed according to the employed active substance concentration there occurs either a strong delay or a complete inhibition of the thrombocyte aggregation.
# [4] = 25° C., pH 7.4, 0.53 mM linoleic acid, 15 min pre-incubation, read-out: I50
# [5] = 25° C., pH 7.4, 0.53 mM linoleic acid, 15 min pre-incubation
SMILES,"pIC50 [1, 4]","IC84 [1, 5] [µM]",also measured
CCC(Oc1ccc2ccccc2c1)C(=O)NO (centres unmarked) [2(2'-naphthoxy)-2-ethyl-acethydroxamic acid],4.49,–,–
"CC(Cc1ccc(O)c(O)c1)C(C)Cc1ccc(O)c(O)c1 (centres unmarked) [nordihydroguaiaretic acid, reference compound]",–,–,minimal effective concentration (guinea pig trachia): 50 µM
CC(Oc1ccc2ccccc2c1)C(=O)NO (centres unmarked) [2(2'-naphthoxy)-2-methyl-acethydroxamic acid],4.40,120,–
CCC(Oc1cccc2ccccc12)C(=O)NO (centres unmarked) [2(1'-naphthoxy)-2-ethyl-acethydroxamic acid],4.38,130,–
CCCCCCCCC(Oc1ccc2ccccc2c1)C(=O)NO (centres unmarked) [2(2'-naphthoxy)-2-n-octyl-acethydroxamic acid],5.64,7,–
"COc1ccc(O)c(C(C)(C)C)c1 [3-tert.-butyl-4-hydroxy-anisol, reference compound]",–,–,activity index i50 (displacement of arachidonic acid ED50) (guinea pig lung strips [2]): 4.6; activity index i84 (displacement of arachidonic acid ED84) (guinea pig lung strips [2]): 3.6; pEC50 (guinea pig lung strips [3]; read-out: ED50 (dilatation)): 4.21; EC84 (guinea pig lung strips [3]; read-out: ED84 (dilatation)): 130 µM; pIC50 [1]: 3.80
O=C(NO)c1ccc2ccccc2c1O [1-hydroxy-2-naphthylhydroxamic acid],4.33,500,–
O=C(COc1cccc2ccccc12)NO [2(1'-naphthoxy)-acethydroxamic acid],4.60,60,–
CC(C)C(Oc1ccc2ccccc2c1)C(=O)NO (centres unmarked) [2(2'-naphthoxy)-2-i-propyl-acethydroxamic acid],4.57,–,–
CCCCCCCCCC(Oc1ccc2ccccc2c1)C(=O)NO (centres unmarked) [2(2'-naphthoxy)-2-n-nonyl-acethydroxamic acid],5.82,4.8,–
CCCCC(Oc1ccc2ccccc2c1)C(=O)NO (centres unmarked) [2(2'-naphthoxy)-2-n-butyl-acethydroxamic acid],4.72,–,–

# Continued, in another order:
"pIC50 [1, 4]","IC84 [1, 5] [µM]",SMILES,also measured
5.15,15,"O=C(CCOc1ccc2ccccc2c1)NO [3(2'-naphthoxy)-n-propylhydroxamic acid, 3(2'-naphthoxy)-propylhydroxamic acid]",–
5.68,4.6,O=C(CCCCCCCOc1ccc2ccccc2c1)NO [8(2'-naphthoxy)-octylhydroxamic acid],–
4.62,–,CCCC(Oc1ccc2ccccc2c1)C(=O)NO (centres unmarked) [2(2'-naphthoxy)-2-n-propyl-acethydroxamic acid],–
5.46,6.4,"O=C(CCCCOc1ccc2ccccc2c1)NO [5(2'-naphthoxy)valerylhydroxamic acid, 5(2'-naphthoxy)-valerylhydroxamic acid]",–
5.34,16,"O=[N+]([O-])c1ccc(O)c(O)c1 [4-nitrocatechol, reference compound]",IC100 (thrombocyte aggregation): 60 µM
5.40,7.5,"O=C(CCCOc1ccc2ccccc2c1)NO [4(2'-naphthoxy)-n-butyl-hydroxamic acid, 4(2'-naphthoxy)-butylhydroxamic acid]",–
4.70,–,"NC1=NN(c2cccc(C(F)(F)F)c2)CC1 [BW 755 C, 3-amino-N-(3-trifluoromethylphenyl)-pyrazoline-(2), reference compound]",–
5.89,–,"CCCCCCCCC#CCC#CCC#CCCCC(=O)O [5,8,11-eicosatriicacid, reference compound]",–
